Test results: ChEMBL document CHEMBL4680217, “Discovery of PROTAC BCL-X degraders as potent anticancer agents with low on-target platelet toxicity” (Eur J Med Chem, 2020)
The source made the active and inactive calls. The rule behind the calls is not given here.

Columns and labels:
[1] = molecular target: von Hippel-Lindau disease tumor suppressor/Bcl-2-like protein 1 (Homo sapiens, UniProt Q07817+P40337); assay: Protac activity at VHL/BCL-XL in human MOLT-4 cells assessed as induction of BCL-XL degradation by measuring remaining BCL-XL level at 100 nM measured after 16 hrs by immunoblotting analysis relative to control; format: cell-based
MOLT-4 = assay: Antiproliferative activity against human MOLT-4 cells assessed as reduction in cell viability measured after 48 hrs by MTS assay; format: functional, cell-based; conditions: MOLT-4, 48 h
[2] = molecular target: von Hippel-Lindau disease tumor suppressor/Apoptosis regulator Bcl-2 (Homo sapiens) (UniProt P10415+P40337); assay: Protac activity at VHL/BCL2 in human MOLT-4 cells assessed as induction of BCL2 degradation at 100 nM measured after 16 hrs by immunoblotting analysis; format: cell-based
[3] = molecular target: Protein cereblon/Apoptosis regulator Bcl-2 (Homo sapiens) (UniProt P10415+Q96SW2); assay: Protac activity at CRBN/BCL2 in human MOLT-4 cells assessed as induction of BCL2 degradation at 50 nM measured after 16 hrs by immunoblotting analysis; format: cell-based
[4] = molecular target: Protein cereblon/Bcl-2-like protein 1 (Homo sapiens, UniProt Q07817+Q96SW2); assay: Protac activity at CRBN/BCL-XL in human MOLT-4 cells assessed as induction of BCL-XL degradation by measuring remaining BCL-XL level at 50 nM measured after 16 hrs by immunoblotting analysis relative to control; format: cell-based
Protein cereblon/Bcl-2-like protein 1, sequence (Q07817 whole entry, looked up): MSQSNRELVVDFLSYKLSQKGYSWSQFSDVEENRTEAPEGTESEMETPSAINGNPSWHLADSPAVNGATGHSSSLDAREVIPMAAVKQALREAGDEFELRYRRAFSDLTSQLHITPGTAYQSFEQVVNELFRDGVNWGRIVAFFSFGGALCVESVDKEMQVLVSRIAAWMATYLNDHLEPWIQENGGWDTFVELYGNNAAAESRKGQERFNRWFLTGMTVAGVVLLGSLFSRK
Protein cereblon/Bcl-2-like protein 1, sequence (Q96SW2 whole entry, looked up): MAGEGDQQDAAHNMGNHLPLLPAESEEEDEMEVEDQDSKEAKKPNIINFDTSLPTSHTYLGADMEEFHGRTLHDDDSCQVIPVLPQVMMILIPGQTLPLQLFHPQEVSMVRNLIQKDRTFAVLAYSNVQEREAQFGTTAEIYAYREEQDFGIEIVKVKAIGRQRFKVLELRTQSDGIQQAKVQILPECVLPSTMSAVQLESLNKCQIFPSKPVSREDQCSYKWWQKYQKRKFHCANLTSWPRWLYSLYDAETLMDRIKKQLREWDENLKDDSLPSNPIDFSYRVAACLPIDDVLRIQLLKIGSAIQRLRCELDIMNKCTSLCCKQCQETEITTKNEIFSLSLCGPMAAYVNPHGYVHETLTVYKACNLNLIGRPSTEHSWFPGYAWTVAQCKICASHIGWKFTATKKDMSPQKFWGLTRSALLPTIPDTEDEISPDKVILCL

von Hippel-Lindau disease tumor suppressor/Apoptosis regulator Bcl-2 (Homo sapiens), sequence (P10415 whole entry, looked up): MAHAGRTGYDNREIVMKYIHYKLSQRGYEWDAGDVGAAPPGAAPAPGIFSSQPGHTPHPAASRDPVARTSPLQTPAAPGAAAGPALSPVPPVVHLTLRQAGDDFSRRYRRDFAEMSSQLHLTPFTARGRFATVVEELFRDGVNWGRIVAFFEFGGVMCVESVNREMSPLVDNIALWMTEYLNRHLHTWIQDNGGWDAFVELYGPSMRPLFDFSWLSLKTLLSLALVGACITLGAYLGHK
von Hippel-Lindau disease tumor suppressor/Apoptosis regulator Bcl-2 (Homo sapiens), sequence (P40337 whole entry, looked up): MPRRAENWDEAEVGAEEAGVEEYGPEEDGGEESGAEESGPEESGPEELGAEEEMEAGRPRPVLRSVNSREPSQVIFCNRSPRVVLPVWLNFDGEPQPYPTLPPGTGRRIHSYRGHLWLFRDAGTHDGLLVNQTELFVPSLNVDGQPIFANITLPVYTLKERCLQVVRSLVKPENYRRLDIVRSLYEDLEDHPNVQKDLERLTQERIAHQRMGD
Protein cereblon/Apoptosis regulator Bcl-2 (Homo sapiens), sequence (P10415 whole entry, looked up): as the sequence (P10415 whole entry, looked up) above
Protein cereblon/Apoptosis regulator Bcl-2 (Homo sapiens), sequence (Q96SW2 whole entry, looked up): as the sequence (Q96SW2 whole entry, looked up) above
von Hippel-Lindau disease tumor suppressor/Bcl-2-like protein 1, sequence (P40337 whole entry, looked up): as the sequence (P40337 whole entry, looked up) above
von Hippel-Lindau disease tumor suppressor/Bcl-2-like protein 1, sequence (Q07817 whole entry, looked up): as the sequence (Q07817 whole entry, looked up) above

Structure (SMILES) | Activity [1] | IC50 (MOLT-4) | Activity [2] | Activity [3] | Activity [4]
Cc1ncsc1-c1ccc([C@H](C)NC(=O)[C@@H]2C[C@@H](O)CN2C(=O)[C@@H](NC(=O)CCCC(=O)N2CCN(CC[C@H](CSc3ccccc3)Nc3ccc(S(=O)(=O)NC(=O)c4ccc(N5CCN(CC6=C(c7ccc(Cl)cc7)CCC(C)(C)C6)CC5)cc4)cc3S(=O)(=O)C(F)(F)F)CC2)C(C)(C)C)cc1 | 82% | > 2000 nM | inactive | – | –
Cc1ncsc1-c1ccc([C@H](C)NC(=O)[C@@H]2C[C@@H](O)CN2C(=O)[C@@H](NC(=O)CCCCCCC(=O)N2CCN(CC[C@H](CSc3ccccc3)Nc3ccc(S(=O)(=O)NC(=O)c4ccc(N5CCN(CC6=C(c7ccc(Cl)cc7)CCC(C)(C)C6)CC5)cc4)cc3S(=O)(=O)C(F)(F)F)CC2)C(C)(C)C)cc1 | 32% | 108 nM | inactive | – | –
Cc1ncsc1-c1ccc([C@H](C)NC(=O)[C@@H]2C[C@@H](O)CN2C(=O)[C@@H](NC(=O)CCCCCCCN2CCN(CC[C@H](CSc3ccccc3)Nc3ccc(S(=O)(=O)NC(=O)c4ccc(N5CCN(CC6=C(c7ccc(Cl)cc7)CCC(C)(C)C6)CC5)cc4)cc3S(=O)(=O)C(F)(F)F)CC2)C(C)(C)C)cc1 | 78% | 181 nM | inactive | – | –
Cc1ncsc1-c1ccc([C@H](C)NC(=O)[C@@H]2C[C@@H](O)CN2C(=O)[C@@H](NC(=O)CC(=O)N2CCN(CC[C@H](CSc3ccccc3)Nc3ccc(S(=O)(=O)NC(=O)c4ccc(N5CCN(CC6=C(c7ccc(Cl)cc7)CCC(C)(C)C6)CC5)cc4)cc3S(=O)(=O)C(F)(F)F)CC2)C(C)(C)C)cc1 | 96% | > 2000 nM | inactive | – | –
Cc1ncsc1-c1ccc([C@H](C)NC(=O)[C@@H]2C[C@@H](O)CN2C(=O)[C@@H](NC(=O)CCCCCN(C)CC[C@H](CSc2ccccc2)Nc2ccc(S(=O)(=O)NC(=O)c3ccc(N4CCN(CC5=C(c6ccc(Cl)cc6)CCC(C)(C)C5)CC4)cc3)cc2S(=O)(=O)C(F)(F)F)C(C)(C)C)cc1 | 60% | 460 nM | inactive | – | –
Cc1ncsc1-c1ccc([C@H](C)NC(=O)[C@@H]2C[C@@H](O)CN2C(=O)[C@@H](NC(=O)COCCCOCC(=O)N2CCN(CC[C@H](CSc3ccccc3)Nc3ccc(S(=O)(=O)NC(=O)c4ccc(N5CCN(CC6=C(c7ccc(Cl)cc7)CCC(C)(C)C6)CC5)cc4)cc3S(=O)(=O)C(F)(F)F)CC2)C(C)(C)C)cc1 | 48% | 232 nM | inactive | – | –
Cc1ncsc1-c1ccc([C@H](C)NC(=O)[C@@H]2C[C@@H](O)CN2C(=O)[C@@H](NC(=O)COCCOCCN(C)CC[C@H](CSc2ccccc2)Nc2ccc(S(=O)(=O)NC(=O)c3ccc(N4CCN(CC5=C(c6ccc(Cl)cc6)CCC(C)(C)C5)CC4)cc3)cc2S(=O)(=O)C(F)(F)F)C(C)(C)C)cc1 | 24% | 97 nM | inactive | – | –
Cc1ncsc1-c1ccc([C@H](C)NC(=O)[C@@H]2C[C@@H](O)CN2C(=O)[C@@H](NC(=O)CCOCCN2CCN(CC[C@H](CSc3ccccc3)Nc3ccc(S(=O)(=O)NC(=O)c4ccc(N5CCN(CC6=C(c7ccc(Cl)cc7)CCC(C)(C)C6)CC5)cc4)cc3S(=O)(=O)C(F)(F)F)CC2)C(C)(C)C)cc1 | 72% | 151 nM | inactive | – | –
Cc1ncsc1-c1ccc([C@H](C)NC(=O)[C@@H]2C[C@@H](O)CN2C(=O)[C@@H](NC(=O)CCCCCCCCN(C)CC[C@H](CSc2ccccc2)Nc2ccc(S(=O)(=O)NC(=O)c3ccc(N4CCN(CC5=C(c6ccc(Cl)cc6)CCC(C)(C)C5)CC4)cc3)cc2S(=O)(=O)C(F)(F)F)C(C)(C)C)cc1 | 49% | 139 nM | inactive | – | –
Cc1ncsc1-c1ccc([C@H](C)NC(=O)[C@@H]2C[C@@H](O)CN2C(=O)[C@@H](NC(=O)CCCCCCCN(C)CC[C@H](CSc2ccccc2)Nc2ccc(S(=O)(=O)NC(=O)c3ccc(N4CCN(CC5=C(c6ccc(Cl)cc6)CCC(C)(C)C5)CC4)cc3)cc2S(=O)(=O)C(F)(F)F)C(C)(C)C)cc1 | 45% | 147 nM | inactive | – | –
Cc1ncsc1-c1ccc([C@H](C)NC(=O)[C@@H]2C[C@@H](O)CN2C(=O)[C@@H](NC(=O)COCCOCCOCCN(C)CC[C@H](CSc2ccccc2)Nc2ccc(S(=O)(=O)NC(=O)c3ccc(N4CCN(CC5=C(c6ccc(Cl)cc6)CCC(C)(C)C5)CC4)cc3)cc2S(=O)(=O)C(F)(F)F)C(C)(C)C)cc1 | 33% | 200 nM | inactive | – | –
Cc1ncsc1-c1ccc([C@H](C)NC(=O)[C@@H]2C[C@@H](O)CN2C(=O)[C@@H](NC(=O)CCOCCC(=O)N2CCN(CC[C@H](CSc3ccccc3)Nc3ccc(S(=O)(=O)NC(=O)c4ccc(N5CCN(CC6=C(c7ccc(Cl)cc7)CCC(C)(C)C6)CC5)cc4)cc3S(=O)(=O)C(F)(F)F)CC2)C(C)(C)C)cc1 | 62% | 324 nM | inactive | – | –
Cc1ncsc1-c1ccc([C@H](C)NC(=O)[C@@H]2C[C@@H](O)CN2C(=O)[C@@H](NC(=O)COCCOCCOCCOCCN(C)CC[C@H](CSc2ccccc2)Nc2ccc(S(=O)(=O)NC(=O)c3ccc(N4CCN(CC5=C(c6ccc(Cl)cc6)CCC(C)(C)C5)CC4)cc3)cc2S(=O)(=O)C(F)(F)F)C(C)(C)C)cc1 | 33% | 206 nM | inactive | – | –
Cc1ncsc1-c1ccc([C@H](C)NC(=O)[C@@H]2C[C@@H](O)CN2C(=O)[C@@H](NC(=O)CCCCC(=O)N2CCN(CC[C@H](CSc3ccccc3)Nc3ccc(S(=O)(=O)NC(=O)c4ccc(N5CCN(CC6=C(c7ccc(Cl)cc7)CCC(C)(C)C6)CC5)cc4)cc3S(=O)(=O)C(F)(F)F)CC2)C(C)(C)C)cc1 | 52% | 467 nM | inactive | – | –
Cc1ncsc1-c1ccc([C@H](C)NC(=O)[C@@H]2C[C@@H](O)CN2C(=O)[C@@H](NC(=O)COCCOCC(=O)N2CCN(CC[C@H](CSc3ccccc3)Nc3ccc(S(=O)(=O)NC(=O)c4ccc(N5CCN(CC6=C(c7ccc(Cl)cc7)CCC(C)(C)C6)CC5)cc4)cc3S(=O)(=O)C(F)(F)F)CC2)C(C)(C)C)cc1 | 79% | 512 nM | inactive | – | –
Cc1ncsc1-c1ccc([C@H](C)NC(=O)[C@@H]2C[C@@H](O)CN2C(=O)[C@@H](NC(=O)CCCCCCN2CCN(CC[C@H](CSc3ccccc3)Nc3ccc(S(=O)(=O)NC(=O)c4ccc(N5CCN(CC6=C(c7ccc(Cl)cc7)CCC(C)(C)C6)CC5)cc4)cc3S(=O)(=O)C(F)(F)F)CC2)C(C)(C)C)cc1 | 62% | 94.5 nM | inactive | – | –
Cc1ncsc1-c1ccc([C@H](C)NC(=O)[C@@H]2C[C@@H](O)CN2C(=O)[C@@H](NC(=O)CCCCN(C)CC[C@H](CSc2ccccc2)Nc2ccc(S(=O)(=O)NC(=O)c3ccc(N4CCN(CC5=C(c6ccc(Cl)cc6)CCC(C)(C)C5)CC4)cc3)cc2S(=O)(=O)C(F)(F)F)C(C)(C)C)cc1 | 75% | 1240 nM | inactive | – | –
CC1(C)CCC(c2ccc(Cl)cc2)=C(CN2CCN(c3ccc(C(=O)NS(=O)(=O)c4ccc(N[C@H](CCN5CCN(CCCCCNc6cccc7c6C(=O)N([C@@H]6CCC(=O)NC6=O)C7=O)CC5)CSc5ccccc5)c(S(=O)(=O)C(F)(F)F)c4)cc3)CC2)C1 | – | 100 nM | – | inactive | 45%
CN(CCOCCOCCOCCOCCNc1cccc2c1C(=O)N([C@@H]1CCC(=O)NC1=O)C2=O)CC[C@H](CSc1ccccc1)Nc1ccc(S(=O)(=O)NC(=O)c2ccc(N3CCN(CC4=C(c5ccc(Cl)cc5)CCC(C)(C)C4)CC3)cc2)cc1S(=O)(=O)C(F)(F)F | – | 19.3 nM | – | inactive | 5%
CN(CCOCCOCCNc1cccc2c1C(=O)N([C@@H]1CCC(=O)NC1=O)C2=O)CC[C@H](CSc1ccccc1)Nc1ccc(S(=O)(=O)NC(=O)c2ccc(N3CCN(CC4=C(c5ccc(Cl)cc5)CCC(C)(C)C4)CC3)cc2)cc1S(=O)(=O)C(F)(F)F | – | 35 nM | – | inactive | 11%
CC1(C)CCC(c2ccc(Cl)cc2)=C(CN2CCN(c3ccc(C(=O)NS(=O)(=O)c4ccc(N[C@H](CCN5CCN(C(=O)COCCOCCOCCNc6cccc7c6C(=O)N([C@@H]6CCC(=O)NC6=O)C7=O)CC5)CSc5ccccc5)c(S(=O)(=O)C(F)(F)F)c4)cc3)CC2)C1 | – | 211 nM | – | inactive | 21%
Cc1ncsc1-c1ccc([C@H](C)NC(=O)[C@@H]2C[C@@H](O)CN2C(=O)[C@@H](NC(=O)CCOCCOCCN2CCN(CC[C@H](CSc3ccccc3)Nc3ccc(S(=O)(=O)NC(=O)c4ccc(N5CCN(CC6=C(c7ccc(Cl)cc7)CCC(C)(C)C6)CC5)cc4)cc3S(=O)(=O)C(F)(F)F)CC2)C(C)(C)C)cc1 | 55% | 914 nM | inactive | – | –
Cc1ncsc1-c1ccc([C@H](C)NC(=O)[C@@H]2C[C@@H](O)CN2C(=O)[C@@H](NC(=O)CCCCN2CCN(CC[C@H](CSc3ccccc3)Nc3ccc(S(=O)(=O)NC(=O)c4ccc(N5CCN(CC6=C(c7ccc(Cl)cc7)CCC(C)(C)C6)CC5)cc4)cc3S(=O)(=O)C(F)(F)F)CC2)C(C)(C)C)cc1 | 61% | 130 nM | inactive | – | –
CN(CC[C@H](CSc1ccccc1)Nc1ccc(S(=O)(=O)NC(=O)c2ccc(N3CCN(CC4=C(c5ccc(Cl)cc5)CCC(C)(C)C4)CC3)cc2)cc1S(=O)(=O)C(F)(F)F)C(=O)CCCCCCn1cc(COCCOCCNc2cccc3c2C(=O)N([C@@H]2CCC(=O)NC2=O)C3=O)nn1 | – | 177 nM | – | inactive | 28%
